According to patent publication US20180116978A1, “FORMULATIONS OF TOCOTRIENOL QUINONES FOR THE TREATMENT OF OPHTHALMIC DISEASES” (priority 2009, published 2018):
Read-outs that look alike come from different tables or passages of the source.

How the values were obtained:
[1] = rat, in vivo
[2] = rat, in vivo; remark: listed apart in the source
Text: The starting dose can be estimated based on the United States Food and Drug Administration guidelines titled “Estimating the Maximum Safe Starting Dose in Initial Clinical Trials for Therapeutics in Adult Healthy Volunteers” (July 2005) as well as the International Conference on Harmonisation of Technical Requirements for Registration of Pharmaceuticals for Human Use (ICH) guidelines titled “Guidance on Non-clinical Safety Studies for the Conduct of Human Clinical Trials and Marketing Authorization for Pharmaceuticals” (July 2008). Per ICH guidelines, predicted exposures from the starting dose should not exceed 1/50th the NOAEL (No-Adverse-Observed-Effect-Level) in the more sensitive species on a mg/m^2 basis. Following a single oral dose of alpha-tocotrienol quinone, the NOAEL was established to be 500 mg/kg for the female rat, i.e. 3,000 mg/m^2. This dosage would be equivalent to 81 mg/kg in an adult human. 1/50th of 81 mg/kg is 1.6 mg/kg, i.e. 110 mg for a 70 kg adult, or 16 mg for a 10 kg child. This dose can be administered once, twice, or three times daily.

[3] = Animal study of alpha-tocotrienol quinone administration, pharmacokinetics in fasted dogs; assay type: in vivo; details: 10 mg/kg
[4] = rat, cited from earlier work

Compound: CC(C)=CCC/C(C)=C/CC/C(C)=C/CCC(C)(O)CCC1=C(C)C(=O)C(C)=C(C)C1=O (stereo not drawn) [Alpha-tocotrienol quinone, Alpha-Tocotrienol quinone]
- increase in AUCs [1]: 1.5:2.8:4.0:6.7
- Cmax ([1]; 10 mg/kg): 931 ng/mL
- Tmax ([1]; 10 mg/kg): 3.5 h
- bioavailability ([1]; 10 mg/kg): ~90%
- t1/2 ([1]; 10 mg/kg): 3.5 h
- NOAEL equivalent dosage in an adult human [2]: 81 mg/kg
- safe when given acutely up to [2]: up to 2000 mg/kg
- Cmax [3]: 442 ng/mL
- Tmax [3]: 2.8 h
- bioavailability [3]: ~16%
- t1/2 [3]: 7.6 h

Compound: Cc1c(C)c2c(c(C)c1O)CC[C@@](C)(CCC[C@H](C)CCC[C@H](C)CCCC(C)C)O2 [alpha-tocopherol]
- concentration in ocular tissues ([4]; in vivo): no significant increase

Compound: alpha-tocotrienol
- concentration in ocular tissues ([4]; topical ophthalmic administration): increased markedly in every tissue
